Measured values from US8304450B2, “Stable pharmaceutical compositions with docetaxel” (Quiral Quimica Do Brasil S.A., priority 2003, dated 2012).

What was measured:
[1] = Comparative stability study between the tri-hydrate and anhydrous forms of docetaxel (bulk substance); assay type: physicochemical; set-up: Assay (H2O): unit not given here; details: for A % Docetaxel / A % Impurities (unknown) / Assay (H2O): bulk substance; for A % Docetaxel: amber glass vials under N2 over P2O5, −5 to 0° C.; for A % Docetaxel / A % Impurities (unknown): HPLC; for A % Impurities (unknown) / Assay (H2O): −5 to 0° C.; for Assay (H2O): Karl Fischer titration
Procedure: Comparative stability study between the tri-hydrate and anhydrous forms of (2R,3S)4-acetoxy-2-α-benzoyloxy-5β-20-epoxy-1,7-β-10-β-tri-hydroxy-9-oxo-tax-11-en-13α-il 3-tert-butoxycarbonylamino-2-hydroxy-3-phenylpropionate
Analysis was realized by HPLC using a Waters Spherisorb® C-18, 250×5 mm column, mobile phase MeOH:H2O 85:15, flow 1.5 mL/min. Related impurities reported as A % discounting the peak due to the dead volume. Samples were stored in amber glass vials under N2 in a dessicator over P2O5 maintained between −5 and 0° C.

[2] = Comparative stability study of solutions of docetaxel tri-hydrate and anhydrous forms in polysorbate 80 with and without acid; assay type: physicochemical; details: solutions in polyethoxylated sorbitol previously or posteriorly acidified
[3] = statement of patent application PI 9508789-3; cited from earlier work
[4] = stored under adequate and controlled conditions

| SMILES | A % Docetaxel ([1]; 0 months) [A %] | A % Impurities (unknown) ([1]; 0 months) [A %] | Assay (H2O) ([1]; 0 months) | A % Docetaxel ([1]; 3 months) [A %] | A % Impurities (unknown) ([1]; 3 months) [A %] | Assay (H2O) ([1]; 3 months) | A % Docetaxel ([1]; 6 months) [A %] | A % Impurities (unknown) ([1]; 6 months) [A %] | Assay (H2O) ([1]; 6 months) | A % Docetaxel ([1]; 12 months) [A %] | A % Impurities (unknown) ([1]; 12 months) [A %] | Assay (H2O) ([1]; 12 months) | A % Docetaxel ([1]; 18 months) [A %] | A % Impurities (unknown) ([1]; 18 months) [A %] | Assay (H2O) ([1]; 18 months) | A % Docetaxel ([1]; 24 months) [A %] | A % Impurities (unknown) ([1]; 24 months) [A %] | Assay (H2O) ([1]; 24 months) | also measured |
| --- | --- | --- | --- | --- | --- | --- | --- | --- | --- | --- | --- | --- | --- | --- | --- | --- | --- | --- | --- |
| CC(=O)O[C@@]12CO[C@@H]1C[C@H](O)[C@@]1(C)C(=O)[C@H](O)C3=C(C)[C@@H](OC(=O)[C@H](O)[C@@H](NC(=O)OC(C)(C)C)c4ccccc4)C[C@@](O)([C@@H](OC(=O)c4ccccc4)[C@H]21)C3(C)C [Docetaxel (anhydrous), (2R,3S)4-acetoxy-2-α-benzoyloxy-5β-20-epoxy-1,7-β-10-β-tri-hydroxy-9-oxo-tax-11-en-13α-il 3-tert-butoxycarbonylamino-2-hydroxy-3-phenylpropionate] | 99.28 | 0.72 | 0.10 | 99.21 | 0.79 | 0.11 | 99.26 | 0.73 | 0.12 | 98.93 | 1.07 | 0.09 | 98.65 | 1.35 | 0.12 | 98.29 | 1.71 | 0.13 | re-hydration on storage [1, 4]: does not re-hydrate to a significant degree; stability of anhydrous product compared with tri-hydrate [1, 4]: stability equal or superior to the tri-hydrate; stability conferred to the pharmaceutical finished dosage form [2]: equal or superior stability |
| CC(=O)O[C@@]12CO[C@@H]1C[C@H](O)[C@@]1(C)C(=O)[C@H](O)C3=C(C)[C@@H](OC(=O)[C@H](O)[C@@H](NC(=O)OC(C)(C)C)c4ccccc4)C[C@@](O)([C@@H](OC(=O)c4ccccc4)[C@H]21)C3(C)C [Docetaxel (tri-hydrate), tri-hydrate of (2R,3S)4-acetoxy-2-α-benzoyloxy-5β-20-epoxy-1,7-β-10-β-tri-hydroxy-9-oxo-tax-11-en-13α-il 3-tert-butoxycarbonylamino-2-hydroxy-3-phenylpropionate] | 99.51 | 0.49 | 6.32 | 99.23 | 0.77 | 6.35 | 99.30 | 0.70 | 6.21 | 98.91 | 1.09 | 6.42 | 98.72 | 1.28 | 6.31 | 98.21 | 1.79 | 6.29 | stability of tri-hydrate relative to anhydrous product [3]: clearly superior stability relative to the anhydrous product |
